According to US6071945A, “8H-thieno-[2,3-b]pyrrolizin-8-one compounds” (Adir et Compagnie, priority 1998, dated 2000):

Key:
[1] = system: IGROV1 human ovarian carcinoma cells; test: In vitro cytotoxicity (Microculture Tetrazolium Assay), IGROV1; type: cell-based; conditions: IGROV-1, 96 h, IGROV1, 4 days incubation, read-out: IC50, concentration that inhibits the proliferation of the treated cells by 50%
Description: (§1) Six cell lines were used:
1 human ovarian carcinoma, IGROV1.
(§2) The cells are cultured in RPMI 1640 complete culture medium containing 10% fetal calf serum, 2 mM glutamine, 50 units/ml of penicillin, 50 μg/ml of streptomycin and 10 mM Hepes, pH=7.4. The cells are distributed on microtitre plates and exposed to the cytotoxic compounds. The cells are then incubated for 2 days (P388, L1210) or 4 days (A549, KB-A1, KB-3-1, IGROV1). The number of viable cells is then quantified by means of a calorimetric assay, the Microculture Tetrazolium Assay (Cancer Res. 1987, 47, 939-942).
(§3) The results are expressed as IC50, the concentration of cytotoxic agent that inhibits the proliferation of the treated cells by 50%.

[2] = system: cells originating from human solid tumours; test: In vitro cytotoxicity, human solid tumour cells compared with murine leukaemias; type: cell-based; conditions: versus P388 and L1210
Description: as §1, §2, §3

[3] = system: L1210 murine leukaemia cells; test: In vitro cytotoxicity (Microculture Tetrazolium Assay), L1210; type: cell-based; conditions: Mus musculus, 48 h; L1210, 2 days incubation; read-out: IC50, concentration that inhibits the proliferation of the treated cells by 50%
Description: as §1, §2, §3

[4] = system: KB-3-1 human epidermoid carcinoma cells; test: In vitro cytotoxicity (Microculture Tetrazolium Assay), KB-3-1; type: cell-based; conditions: 96 h, KB-3-1, 4 days incubation, read-out: IC50, concentration that inhibits the proliferation of the treated cells by 50%
Description: as §1
(§4) 1 human epidermoid carcinoma, KB-3-1 , and the corresponding resistant line, KB-A 1, the multi-drug, resistance of which was produced using adriamycin (ADR),
as §2, §3

[5] = system: P388 murine leukaemia cells; test: In vitro cytotoxicity (Microculture Tetrazolium Assay), P388; type: cell-based; conditions: Mus musculus, 48 h; P388, 2 days incubation; read-out: IC50, concentration that inhibits the proliferation of the treated cells by 50%
Description: as §1, §2, §3

[6] = system: KB-A1 multi-drug resistant (adriamycin) human epidermoid carcinoma cells; test: In vitro cytotoxicity (Microculture Tetrazolium Assay), KB-A1; type: cell-based; conditions: 96 h, KB-A1, 4 days incubation, read-out: IC50, concentration that inhibits the proliferation of the treated cells by 50%
Description: as §1, §4, §2, §3

P388 leukaemia = test: In vivo anti-tumour activity on the P388 leukaemia; set-up: species or system female BDF1 mice; conditions: intraperitoneal, once per day for 4 days (D1-4)
Description: Line P388 (murine leukaemia) was supplied by the National Cancer Institute (Frederick, U.S.A.). The tumour cells (10^6 cells) were inoculated on day 0 into the peritoneal cavity of female BDF1 mice (Iffa-Credo, France) weighing from 18 to 20 g (groups of 6 animals). The products were administered by the intraperitoneal route once per day for 4 days (D1-4) at the doses indicated.
(§5) The anti-tumour activity is expressed as % T/C: [formula]

L1210 cells = test: Action on the cell cycle; type: cell-based, murine; conditions: 500 nM, 21 hours, 37° C.; control: 20%
Description: L1210 cells are incubated for 21 hours at 37° C. in the presence of different concentrations of the products being tested. The cells are then fixed using 70% (v/v) ethanol, washed twice in PBS and incubated for 30 minutes at 20° C. in PBS containing 100 μg/ml of RNase and 50 μg/ml of propidium iodide. The results are expressed as the percentage of cells that have accumulated in the G2+M phase after 21 hours, compared to the control (control: 20%). At a concentration of 500 nM, the compound of Example 8 causes 80-90% of the cells to accumulate in the G2+M phase after 21 hours.

IGROV1 ovarian carcinoma = test: In vivo anti-tumour activity on the IGROV1 ovarian carcinoma; set-up: species or system nude BABL/C mice; conditions: 200 mg/kg, intraperitoneal, once per week on days 4, 11 and 18
Description: as §5
IGROV1 tumour cells (10^7 cells) were incubated on day 0 in the peritoneal cavity of nude BABL/C mice (groups of 5 animals). The products were administered by the intraperitoneal route once per week on days 4, 11 and 18. The anti-tumour activity is expressed as % T/C as defined hereinbefore. The compound of Example 8 is active at the 200 mg/kg dose and increases the survival of the treated animals by 60% (T/C=160%).

[7] = system: A549 human non-small-cell lung carcinoma cells; test: In vitro cytotoxicity (Microculture Tetrazolium Assay), A549; type: cell-based; conditions: 96 h, A549, 4 days incubation, read-out: IC50, concentration that inhibits the proliferation of the treated cells by 50%
Description: as §1
1 human non-small-cell lung carcinoma, A549,
as §2, §3

`O=C1c2scc(-c3ccc(O)c(O)c3)c2-n2cccc21` [Example 8, 3-(3,4-Dihydroxyphenyl)-8H-thieno[2,3-b]pyrrolizin-8-one] was tested, and the IC50 [1] was 0.056 µM, the “effect on cells originating from human solid tumours compared with the two murine leukaemias” value [2] was “more potent effect on the cells originating from human solid tumours than on the two murine leukaemias” and the IC50 [3] was 0.222 µM. For the same compound, the IC50 [4] was 0.033 µM, the IC50 [5] was 0.356 µM and the IC50 [6] was 0.022 µM. The minimal effective dose (P388 leukaemia; Mus musculus, P388, ip, read-out: dose from which the compound is active) was at least 25 mg/kg, the “increase in survival of the treated animals” value (P388 leukaemia; active from the 25 mg/kg dose) was 70% and the “percentage of cells that have accumulated in the G2+M phase” value (L1210 cells) was 80-90%. The T/C (IGROV1 ovarian carcinoma) was 160%, the “increase in survival of the treated animals” value (IGROV1 ovarian carcinoma) was 60% and the IC50 [7] was 0.122 µM.
